Like-named read-outs stand apart in the source and are kept apart here.
How the values were obtained:
CDK4 = molecular target: T1, CDK4 (Homo sapiens, UniProt P11802); assay: CDK4 percentage degradation in Calu-1 cells (immunoblotting); type: cell-based; details: for inhibition at 0.2 µM: read-out: CDK4 Degradation (200 nM); for inhibition at 10 µM: read-out: CDK4 Degradation (10 μM)
T1 construct: endogenous in cells; host or cells: Calu-1
Method: (§1) […] A: protein percentage degradation >=80%; B: protein percentage degradation <80%, and >=50%; C: protein percentage degradation <50%, and >=30%; D: protein percentage degradation <30%.
(§2) Cultured cells were washed with cold PBS once and lysed in cold RIPA buffer supplemented with protease inhibitors and phosphatase inhibitors (Beyotime Biotechnology). The solutions were then incubated at 4° C. for 30 min with gentle agitation to fully lysed cells. Cell lysates were centrifuged at 13,000 rpm for 10 min at 4° C. and pellets were discarded. Total protein concentrations in the lysates were determined following BCA assays (Beyotime Biotechnology). Cell lysates were mixed with Laemmli loading buffer and heated at 99° C. for 5 min. Proteins were resolved on SDS-PAGE and visualized using Western ECL Substrate kits on a ChemiDoc MP Imaging system (Bio-Rad). Protein bands were quantitated using the Image Lab software provided by Bio-Rad.

cyclin D1 = assay: Cyclin D1 percentage degradation in Calu-1 cells (immunoblotting); type: cell-based; details: 16 hours
Method: as §1, §2

T1 sequence (P11802 2-303 limits assumed): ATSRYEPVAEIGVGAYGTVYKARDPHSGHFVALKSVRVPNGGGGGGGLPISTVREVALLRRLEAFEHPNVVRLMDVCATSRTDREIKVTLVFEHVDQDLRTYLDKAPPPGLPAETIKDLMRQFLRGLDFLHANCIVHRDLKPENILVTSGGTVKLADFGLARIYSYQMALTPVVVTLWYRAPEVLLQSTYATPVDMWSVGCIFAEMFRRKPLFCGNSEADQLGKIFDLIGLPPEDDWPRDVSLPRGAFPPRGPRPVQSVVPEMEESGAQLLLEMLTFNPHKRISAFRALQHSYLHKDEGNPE
T1 sequence (P24385 whole entry partner): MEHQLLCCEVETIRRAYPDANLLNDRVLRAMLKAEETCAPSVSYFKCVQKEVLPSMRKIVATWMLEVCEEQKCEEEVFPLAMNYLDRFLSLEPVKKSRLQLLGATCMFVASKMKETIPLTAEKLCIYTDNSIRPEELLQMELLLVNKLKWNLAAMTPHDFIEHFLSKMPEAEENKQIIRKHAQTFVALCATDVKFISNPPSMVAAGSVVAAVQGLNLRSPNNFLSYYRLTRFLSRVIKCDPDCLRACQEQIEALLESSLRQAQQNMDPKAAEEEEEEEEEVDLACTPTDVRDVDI
T1 sequence (Q16531 2-1140 limits assumed, further chain): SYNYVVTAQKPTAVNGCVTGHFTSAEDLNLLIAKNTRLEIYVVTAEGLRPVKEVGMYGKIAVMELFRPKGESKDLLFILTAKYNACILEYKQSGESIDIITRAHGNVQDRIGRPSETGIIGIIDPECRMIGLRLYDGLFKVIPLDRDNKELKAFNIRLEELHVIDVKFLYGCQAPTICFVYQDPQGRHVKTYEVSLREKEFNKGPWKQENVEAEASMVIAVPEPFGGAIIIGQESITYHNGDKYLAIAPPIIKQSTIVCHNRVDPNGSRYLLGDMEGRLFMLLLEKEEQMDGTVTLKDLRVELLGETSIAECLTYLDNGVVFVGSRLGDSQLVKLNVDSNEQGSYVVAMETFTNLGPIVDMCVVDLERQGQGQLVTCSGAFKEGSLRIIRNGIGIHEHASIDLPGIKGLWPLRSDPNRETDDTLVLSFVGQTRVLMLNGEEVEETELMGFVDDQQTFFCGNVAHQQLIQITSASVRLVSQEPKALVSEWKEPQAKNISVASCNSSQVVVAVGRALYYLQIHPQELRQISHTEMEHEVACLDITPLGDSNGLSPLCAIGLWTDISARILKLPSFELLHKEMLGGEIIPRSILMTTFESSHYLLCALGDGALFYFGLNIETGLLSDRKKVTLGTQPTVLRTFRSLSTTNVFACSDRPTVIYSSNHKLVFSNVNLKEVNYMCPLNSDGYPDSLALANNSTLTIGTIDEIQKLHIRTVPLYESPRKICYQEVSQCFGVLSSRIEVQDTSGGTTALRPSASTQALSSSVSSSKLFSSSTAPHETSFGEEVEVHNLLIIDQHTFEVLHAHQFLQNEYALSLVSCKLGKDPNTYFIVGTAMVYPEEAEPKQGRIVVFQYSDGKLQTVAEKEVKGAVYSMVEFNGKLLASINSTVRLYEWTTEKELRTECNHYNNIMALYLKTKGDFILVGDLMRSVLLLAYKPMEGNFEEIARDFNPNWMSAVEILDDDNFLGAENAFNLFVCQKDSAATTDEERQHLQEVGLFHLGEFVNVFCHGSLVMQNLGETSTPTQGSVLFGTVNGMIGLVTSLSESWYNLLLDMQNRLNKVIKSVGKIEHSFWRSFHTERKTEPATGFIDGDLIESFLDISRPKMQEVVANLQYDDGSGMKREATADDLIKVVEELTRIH

SMILES: CC(=O)c1c(C)c2cnc(Nc3ccc(N4CCN(CC(=O)NCCCCCC(=O)Nc5ccccc5C(=O)Nc5nc(C)c(C)s5)CC4)cn3)nc2n(C2CCCC2)c1=O [CPD-172, 2-(6-(2-(4-(6-((6-Acetyl-8-cyclopentyl-5-methyl-7-oxo-7,8-dihydropyrido[2,3-d]pyrimidin-2-yl)amino)pyridin-3-yl)piperazin-1-yl)acetamido)hexanamido)-N-(4,5-dimethylthiazol-2-yl)benzamide]
- inhibition at 0.2 µM (CDK4; Calu-1 cells, 200 nM, 16 hours): 30 to 50%
- CyclinD1 Degradation (200 nM) (cyclin D1): D (protein percentage degradation <30%)

SMILES: CC(=O)c1c(C)c2cnc(Nc3ccc(N4CCN(CC(=O)NCCOCCOCCC(=O)Nc5c(C(=O)Nc6ccc(C)cn6)ccc6[nH]ccc56)CC4)cn3)nc2n(C2CCCC2)c1=O [CPD-361, 4-(3-(2-(2-(2-(4-(6-((6-acetyl-8-cyclopentyl-5-methyl-7-oxo-7,8-dihydropyrido[2,3-d]pyrimidin-2-yl)amino)pyridin-3-yl)piperazin-1-yl)acetamido)ethoxy)ethoxy)propanamido)-N-(5-methylpyridin-2-yl)-1H-indole-5-carboxamide]
- inhibition at 0.2 µM (CDK4; Calu-1 cells, 200 nM, 16 hours): 50 to 80%
- CyclinD1 Degradation (200 nM) (cyclin D1): A (protein percentage degradation >=80%)

SMILES: Cc1nc(NC(=O)c2ccccc2NC(=O)CCCCCNC(=O)CN2CCN(c3ccc(Nc4ncc5cc6n(c5n4)C4(CCCCC4)CNC6=O)nc3)CC2)sc1C [CPD-318, N-(4,5-Dimethylthiazol-2-yl)-2-(6-(2-(4-(6-((6′-oxo-7′,8′-dihydro-6′H-spiro[cyclohexane-1,9′-pyrazino[1′,2′:1,5]pyrrolo[2,3-d]pyrimidin]-2′-yl)amino)pyridin-3-yl)piperazin-1-yl)acetamido)hexanamido)benzamide]
- inhibition at 10 µM (CDK4; Calu-1 cells, 16 hours): 30 to 50%
- CyclinD1 Degradation (10 μM) (cyclin D1): D (protein percentage degradation < 30%)

SMILES: CC(=O)c1c(C)c2cnc(Nc3ccc(N4CCN(CC(=O)NCCOCCOCCOCCOCCOCCNc5ccc(C(=O)Nc6ccc(C)cc6)c(C)c5)CC4)cn3)nc2n(C2CCCC2)c1=O [CPD-025, 4-((1-(4-(6-((6-Acetyl-8-cyclopentyl-5-methyl-7-oxo-7,8-dihydropyrido[2,3-d]pyrimidin-2-yl)amino)pyridin-3-yl)piperazin-1-yl)-2-oxo-6,9,12,15,18-pentaoxa-3-azaicosan-20-yl)amino)-2-methyl-N-(p-tolyl)benzamide]
- inhibition at 0.2 µM (CDK4; Calu-1, 16 h): < 30%
- CyclinD1 Degradation (200 nM) (cyclin D1): D (protein percentage degradation <30%)

SMILES: CC(=O)c1c(C)c2cnc(Nc3ccc(N4CCN(CC(=O)NCCOCCOCCC(=O)Nc5c(C(=O)Nc6ccc(C)cn6)ccc6ncccc56)CC4)cn3)nc2n(C2CCCC2)c1=O [CPD-362, 5-(3-(2-(2-(2-(4-(6-((6-Acetyl-8-cyclopentyl-5-methyl-7-oxo-7,8-dihydropyrido[2,3-d]pyrimidin-2-yl)amino)pyridin-3-yl)piperazin-1-yl)acetamido)ethoxy)ethoxy)propanamido)-N-(5-methylpyridin-2-yl)quinoline-6-carboxamide]
- inhibition at 0.2 µM (CDK4; Calu-1 cells, 200 nM, 16 hours): < 30%
- CyclinD1 Degradation (200 nM) (cyclin D1): D (protein percentage degradation <30%)

SMILES: COc1ccc(NC(=O)c2ccccc2NC(=O)COCCO[C@H]2CC[C@H](NC(=O)CN3CCN(c4ccc(Nc5ncc6c(C)c(C(C)=O)c(=O)n(C7CCCC7)c6n5)nc4)CC3)CC2)nn1 [CPD-366, 2-(2-(2-((trans-4-(2-(4-(6-((6-Acetyl-8-cyclopentyl-5-methyl-7-oxo-7,8-dihydropyrido[2,3-d]pyrimidin-2-yl)amino)pyridin-3-yl)piperazin-1-yl)acetamido)cyclohexyl)oxy)ethoxy)acetamido)-N-(6-methoxypyridazin-3-yl)benzamide]
- inhibition at 0.2 µM (CDK4; Calu-1 cells, 200 nM, 16 hours): < 30%
- CyclinD1 Degradation (200 nM) (cyclin D1): D (protein percentage degradation <30%)

SMILES: CC(=O)c1c(C)c2cnc(Nc3ccc(N4CCN(C(=O)CCOCCC(=O)Nc5ccccc5C(=O)Nc5nc(C)c(C)s5)CC4)cn3)nc2n(C2CCCC2)c1=O [CPD-181, 2-(3-(3-(4-(6-((6-Acetyl-8-cyclopentyl-5-methyl-7-oxo-7,8-dihydropyrido[2,3-d]pyrimidin-2-yl)amino)pyridin-3-yl)piperazin-1-yl)-3-oxopropoxy)propanamido)-N-(4,5-dimethylthiazol-2-yl)benzamide]
- inhibition at 0.2 µM (CDK4; Calu-1, 16 h): < 30%
- CyclinD1 Degradation (200 nM) (cyclin D1): D (protein percentage degradation <30%)

SMILES: CC(=O)c1c(C)c2cnc(Nc3ccc(N4CCN(CC(=O)NCCOCCOCCOCCNc5cccc(C(=O)Nc6nc(C)c(C)s6)c5C)CC4)cn3)nc2n(C2CCCC2)c1=O [CPD-105, 3-((1-(4-(6-((6-Acetyl-8-cyclopentyl-5-methyl-7-oxo-7,8-dihydropyrido[2,3-d]pyrimidin-2-yl)amino)pyridin-3-yl)piperazin-1-yl)-2-oxo-6,9,12-trioxa-3-azatetradecan-14-yl)amino)-N-(4,5-dimethylthiazol-2-yl)-2-methylbenzamide]
- inhibition at 0.2 µM (CDK4; Calu-1 cells, 200 nM, 16 hours): 50 to 80%
- CyclinD1 Degradation (200 nM) (cyclin D1): A (protein percentage degradation >=80%)

SMILES: CC(=O)c1c(C)c2cnc(Nc3ccc(N4CCN(CC(=O)NCCOCCOCCOCCOCCOCCNc5ccc(C(=O)Nc6ncc(C(F)(F)F)s6)c(C)c5)CC4)cn3)nc2n(C2CCCC2)c1=O [CPD-003, 4-((1-(4-(6-((6-Acetyl-8-cyclopentyl-5-methyl-7-oxo-7,8-dihydropyrido[2,3-d]pyrimidin-2-yl)amino)pyridin-3-yl)piperazin-1-yl)-2-oxo-6,9,12,15,18-pentaoxa-3-azaicosan-20-yl)amino)-2-methyl-N-(5-(trifluoromethyl)thiazol-2-yl)benzamide]
- inhibition at 0.2 µM (CDK4; Calu-1 cells, 200 nM, 16 hours): < 30%
- CyclinD1 Degradation (200 nM) (cyclin D1): D (protein percentage degradation <30%)

SMILES: CC(=O)c1c(C)c2cnc(Nc3ccc(N4CCN(CCNCCCCCCCNc5cccc(C(=O)Nc6nc(C)c(C)s6)c5C)CC4)cn3)nc2n(C2CCCC2)c1=O [CPD-188, 3-((7-((2-(4-(6-((6-Acetyl-8-cyclopentyl-5-methyl-7-oxo-7,8-dihydropyrido[2,3-d]pyrimidin-2-yl)amino)pyridin-3-yl)piperazin-1-yl)ethyl)amino)heptyl)amino)-N-(4,5-dimethylthiazol-2-yl)-2-methylbenzamide]
- inhibition at 0.2 µM (CDK4; Calu-1, 16 h): < 30%
- CyclinD1 Degradation (200 nM) (cyclin D1): D (protein percentage degradation <30%)

SMILES: CC(=O)c1c(C)c2cnc(Nc3ccc(N4CCN(CC(=O)NCCOCCOCCC(=O)Nc5ccccc5C(=O)Nc5nc(C6CCOCC6)c(C)s5)CC4)cn3)nc2n(C2CCCC2)c1=O [CPD-062, 2-(3-(2-(2-(2-(4-(6-((6-Acetyl-8-cyclopentyl-5-methyl-7-oxo-7,8-dihydropyrido[2,3-d]pyrimidin-2-yl)amino)pyridin-3-yl)piperazin-1-yl)acetamido)ethoxy)ethoxy)propanamido)-N-(5-methyl-4-(tetrahydro-2H-pyran-4-yl)thiazol-2-yl)benzamide]
- inhibition at 0.2 µM (CDK4; Calu-1 cells, 200 nM, 16 hours): < 30%
- CyclinD1 Degradation (200 nM) (cyclin D1): D (protein percentage degradation <30%)

SMILES: Cc1nc(NC(=O)c2ccccc2NC(=O)CCOCCOCCOCCOCCNC(=O)CN2CCN(c3ccc(Nc4ncc(F)c(-c5cc(F)c6nc(C)n(C(C)C)c6c5)n4)nc3)CC2)sc1C [CPD-311, N-(4,5-Dimethylthiazol-2-yl)-2-(1-(4-(6-((5-fluoro-4-(4-fluoro-1-isopropyl-2-methyl-1H-benzo[d]imidazol-6-yl)pyrimidin-2-yl)amino)pyridin-3-yl)piperazin-1-yl)-2-oxo-6,9,12,15-tetraoxa-3-azaoctadecan-18-amido)benzamide]
- inhibition at 10 µM (CDK4; Calu-1 cells, 16 hours): 30 to 50%
- CyclinD1 Degradation (10 μM) (cyclin D1): A (protein percentage degradation >= 80%)

SMILES: COc1ccc(NC(=O)c2ccccc2NC(=O)CCOCCN2CCC(NC(=O)CN3CCN(c4ccc(Nc5ncc6c(C)c(C(C)=O)c(=O)n(C7CCCC7)c6n5)nc4)CC3)CC2)nn1 [CPD-348, 2-(3-(2-(4-(2-(4-(6-((6-Acetyl-8-cyclopentyl-5-methyl-7-oxo-7,8-dihydropyrido[2,3-d]pyrimidin-2-yl)amino)pyridin-3-yl)piperazin-1-yl)acetamido)piperidin-1-yl)ethoxy)propanamido)-N-(6-methoxypyridazin-3-yl)benzamide]
- inhibition at 0.2 µM (CDK4; Calu-1 cells, 200 nM, 16 hours): < 30%
- CyclinD1 Degradation (200 nM) (cyclin D1): D (protein percentage degradation <30%)

SMILES: Cc1nc(NC(=O)c2ccccc2NC(=O)CCCCCCNC(=O)CN2CCN(Cc3ccc(Nc4ncc(F)c(-c5cc(F)c6nc(C)n(C(C)C)c6c5)n4)nc3)CC2)sc1C [CPD-277, N-(4,5-Dimethylthiazol-2-yl)-2-(7-(2-(4-((6-((5-fluoro-4-(4-fluoro-1-isopropyl-2-methyl-1H-benzo[d]imidazol-6-yl)pyrimidin-2-yl)amino)pyridin-3-yl)methyl)piperazin-1-yl)acetamido)heptanamido)benzamide]
- inhibition at 10 µM (CDK4; Calu-1 cells, 16 hours): < 30%
- CyclinD1 Degradation (10 μM) (cyclin D1): D (protein percentage degradation < 30%)

SMILES: Cc1nc(NC(=O)c2ccccc2NC(=O)CCOCCOCCOCCOCCOCCOCCNC(=O)CN2CCN(c3ccc(Nc4ncc(F)c(-c5cc(F)c6nc(C)n(C(C)C)c6c5)n4)nc3)CC2)sc1C [CPD-313, N-(4,5-Dimethylthiazol-2-yl)-2-(1-(4-(6-((5-fluoro-4-(4-fluoro-1-isopropyl-2-methyl-1H-benzo[d]imidazol-6-yl)pyrimidin-2-yl)amino)pyridin-3-yl)piperazin-1-yl)-2-oxo-6,9,12,15,18,21-hexaoxa-3-azatetracosan-24-amido)benzamide]
- inhibition at 10 µM (CDK4; Calu-1 cells, 16 hours): < 30%
- CyclinD1 Degradation (10 μM) (cyclin D1): A (protein percentage degradation >= 80%)
